Data reported in ChEMBL document CHEMBL3600292, “Anti-HIV screening for cell-penetrating peptides using chloroquine and identification of anti-HIV peptides derived from matrix proteins” (Bioorg Med Chem, 2015).
Starred links: 1 amine or outer side, 2 acyl side, 3 side chain; linkers in the order of their positions; H or OH if unused. Positions of bridges follow the written chain, without caps; N, C: chain ends. Non-standard residues stand in square brackets, D forms with d. Residues, ends and D or L forms follow the SMILES beside them. Chains are numbered I, II in the order given. *: point of attachment. Orn = NCCC[C@H](N)C(=O)O; X1 = O=C(C[*:1])[*:2]; Cam = NC(=O)C*

Legend:
[1] = tested on: Human immunodeficiency virus 1; assay: Antiviral activity against T-cell line-tropic HIV1 NL4-3 infected in human MT4 cells assessed as inhibition of virus-induced cytopathogenicity after 5 days by MTT assay in presence of 10 uM of chloroquine; type: functional, organism-based; conditions: Human immunodeficiency virus 1, NL4-3, MT4, 120 h
[2] = Cytotoxicity against human PM1 cells expressing CCR5 by MTT assay in presence of 5 uM of chloroquine; type: cell-based
[3] = tested on: Human immunodeficiency virus 1; assay: Antiviral activity against macrophage-tropic HIV1 NL(AD8) infected in human PM1 expressing CCR5 cells assessed as inhibition of virus-induced cytopathogenicity after 5 days by MTT assay in presence of 5 uM of chloroquine; type: functional, organism-based; conditions: Human immunodeficiency virus 1, NL(AD8), PM1/CCR5, 120 h
[4] = Cytotoxicity against human MT4 cells by MTT assay in presence of 10 uM of chloroquine; type: cell-based
[5] = tested on: Human immunodeficiency virus 1; assay: Antiviral activity against T-cell line-tropic HIV1 NL4-3 infected in human MT4 cells assessed as inhibition of virus-induced cytopathogenicity after 5 days by MTT assay in presence of 5 uM of chloroquine; type: functional, organism-based; conditions: Human immunodeficiency virus 1, NL4-3, MT4, 120 h
[6] = Cytotoxicity against human MT4 cells by MTT assay in presence of 5 uM of chloroquine; type: cell-based
[7] = tested on: Human immunodeficiency virus 1; assay: Antiviral activity against T-cell line-tropic HIV1 NL4-3 infected in human MT4 cells assessed as inhibition of virus-induced cytopathogenicity after 5 days by MTT assay in presence of 2.5 uM of chloroquine; type: functional, organism-based; conditions: Human immunodeficiency virus 1, NL4-3, MT4, 120 h
[8] = tested on: Human immunodeficiency virus 1; assay: Antiviral activity against T-cell line-tropic HIV1 NL4-3 infected in human MT4 cells assessed as inhibition of virus-induced cytopathogenicity after 5 days by MTT assay; type: functional, organism-based; conditions: Human immunodeficiency virus 1, NL4-3, MT4, 120 h
[9] = Cytotoxicity against human MT4 cells by MTT assay in presence of 2.5 uM of chloroquine; type: cell-based
[10] = Cytotoxicity against human MT4 cells by MTT assay; type: cell-based

Row | SMILES | EC50 [1] | CC50 [2] | EC50 [3] | CC50 [4] | EC50 [5] | CC50 [6] | EC50 [7] | EC50 [8] | CC50 [9] | CC50 [10]
1 | CC[C@H](C)[C@H](NC(=O)[C@H](CCCNC(=N)N)NC(=O)[C@H](CCC(N)=O)NC(=O)[C@H](Cc1cnc[nH]1)NC(=O)[C@@H](NC(=O)[C@H](CO)NC(=O)[C@H](Cc1ccc(O)cc1)NC(=O)[C@H](CC(C)C)NC(=O)[C@@H](NC(=O)[C@H](C)NC(=O)[C@@H](NC(=O)[C@@H](NC(C)=O)[C@@H](C)O)[C@@H](C)CC)C(C)C)C(C)C)C(=O)N[C@@H](CC(=O)O)C(=O)N[C@H](C(=O)N[C@@H](CCCCN)C(=O)NCC(=O)N[C@@H](CSCC(N)=O)C(N)=O)C(C)C (Ac-TIAVLYSVHQRIDVKGC(Cam)-NH2) | 0.65 µM | > 50 µM | > 50 µM | > 50 µM | 22 µM | 47 µM | > 50 µM | > 50 µM | > 50 µM | > 50 µM
2 | CC[C@H](C)[C@H](NC(=O)[C@H](CCCNC(=N)N)NC(=O)[C@H](CCC(N)=O)NC(=O)[C@H](Cc1c[nH]cn1)NC(=O)[C@@H](NC(=O)[C@H](CO)NC(=O)[C@H](Cc1ccc(O)cc1)NC(=O)[C@H](CC(C)C)NC(=O)[C@@H](NC(=O)[C@H](C)NC(=O)[C@@H](NC(=O)[C@@H](NC(C)=O)[C@@H](C)O)[C@@H](C)CC)C(C)C)C(C)C)C(=O)N[C@@H](CC(=O)O)C(=O)N[C@H](C(=O)N[C@@H](CCCCN)C(=O)NCC(=O)N[C@@H](CSCC(=O)N[C@@H](CCCNC(=N)N)C(=O)N[C@@H](CCCN)C(=O)N[C@@H](CCCNC(=N)N)C(=O)N[C@@H](CCCN)C(=O)N[C@@H](CCCNC(=N)N)C(=O)N[C@@H](CCCN)C(=O)N[C@@H](CCCNC(=N)N)C(=O)N[C@@H](CCCN)C(N)=O)C(N)=O)C(C)C (I: Ac-TIAVLYSVHQRIDVKGC-NH2 / II: R[Orn]R[Orn]R[Orn]R[Orn]-NH2; linker I:17-II:N via X1) | 0.2 µM | 7.2 µM | 1.1 µM | 9.1 µM | 0.62 µM | 11 µM | 1.6 µM | 6.3 µM | 6.1 µM | 10 µM
3 | CC[C@H](C)[C@H](NC(=O)[C@H](CCCNC(=N)N)NC(=O)[C@H](CCC(N)=O)NC(=O)[C@H](Cc1c[nH]cn1)NC(=O)[C@@H](NC(=O)[C@H](CO)NC(=O)[C@H](Cc1ccc(O)cc1)NC(=O)[C@H](CC(C)C)NC(=O)[C@@H](NC(=O)[C@H](C)NC(=O)[C@@H](NC(=O)[C@@H](NC(=O)[C@H](CC(N)=O)NC(=O)[C@H](Cc1ccc(O)cc1)NC(C)=O)[C@@H](C)O)[C@@H](C)CC)C(C)C)C(C)C)C(=O)N[C@@H](CC(=O)O)C(=O)NCC(=O)N[C@@H](CSCC(=O)N[C@@H](CCCNC(=N)N)C(=O)N[C@@H](CCCN)C(=O)N[C@@H](CCCNC(=N)N)C(=O)N[C@@H](CCCN)C(=O)N[C@@H](CCCNC(=N)N)C(=O)N[C@@H](CCCN)C(=O)N[C@@H](CCCNC(=N)N)C(=O)N[C@@H](CCCN)C(N)=O)C(N)=O (I: Ac-YNTIAVLYSVHQRIDGC-NH2 / II: R[Orn]R[Orn]R[Orn]R[Orn]-NH2; linker I:17-II:N via X1) |  | 7.6 µM | 1.4 µM |  | 1.7 µM | 7.7 µM |  | > 7 µM |  | 7 µM
4 | c1cc(CN2CCCNCCNCCCNCC2)ccc1CN1CCCNCCNCCCNCC1 [PLERIXAFOR] |  | > 50 µM | > 50 µM | > 50 µM | 0.025 µM | > 50 µM | 0.039 µM | 0.032 µM | > 50 µM | > 50 µM
5 | COC[C@@H](c1ccc(C(F)(F)F)cc1)N1CCN(C2(C)CCN(C(=O)c3c(C)ncnc3C)CC2)C[C@@H]1C [VICRIVIROC] |  | > 5 µM | 0.0049 µM |  | > 5 µM | > 5 µM |  | > 5 µM |  | > 5 µM
6 | Cc1cn([C@H]2C[C@H](N=[N+]=[N-])[C@@H](CO)O2)c(=O)[nH]c1=O [ZIDOVUDINE] |  | > 100 µM | 0.51 µM | 31 µM | 0.013 µM | > 100 µM | 0.015 µM | 0.12 µM | 27 µM | > 100 µM
